Test results from BindingDB's records for doi:10.7270/Q2G44NRK (Burnham Center For Chemical Genomics, 2010).

Molecular target: Mu-type opioid receptor (Homo sapiens, UniProt P35372)
Assay: mu opioid receptor blockers – image-based, SAR follow-up (AID 2420)

Sequence of Mu-type opioid receptor (P35372 whole entry): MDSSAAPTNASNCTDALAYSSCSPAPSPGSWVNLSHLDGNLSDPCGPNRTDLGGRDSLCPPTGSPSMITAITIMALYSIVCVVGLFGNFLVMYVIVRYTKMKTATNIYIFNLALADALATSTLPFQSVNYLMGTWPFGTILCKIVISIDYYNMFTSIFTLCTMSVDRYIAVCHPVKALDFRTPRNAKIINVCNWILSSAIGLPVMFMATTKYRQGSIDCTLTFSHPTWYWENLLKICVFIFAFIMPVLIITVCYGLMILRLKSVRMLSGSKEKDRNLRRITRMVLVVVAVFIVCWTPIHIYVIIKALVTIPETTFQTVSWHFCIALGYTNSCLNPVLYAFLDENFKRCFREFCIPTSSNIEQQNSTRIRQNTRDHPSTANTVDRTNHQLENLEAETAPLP

Compound | IC50 [µM]
Oc1ccc(CN=Nc2ccnc3cc(Cl)ccc23)cc1O [(4Z)-4-[[2-(7-chloroquinolin-4-yl)hydrazinyl]methylidene]-2-hydroxycyclohexa-2,5-dien-1-one] | > 32
CCC(N=Nc1ccnc2cc(Cl)ccc12)c1ccc(O)cc1 (configuration not stated) [4-[1-[2-(7-chloroquinolin-4-yl)hydrazinyl]propylidene]cyclohexa-2,5-dien-1-one] | > 32
